# Measured values reported in ChEMBL document CHEMBL2311416, “The discovery of potent and selective 4-aminothienopyridines as B-Raf kinase inhibitors” (Bioorg Med Chem Lett, 2013).
# Columns and labels:
# Homo sapiens [1] = organism: Homo sapiens; assay: Selectivity ratio of IC50 for JNK3 (unknown origin) to IC50 for B-Raf (unknown origin)
# Homo sapiens [2] = organism: Homo sapiens; assay: Selectivity ratio of IC50 for ROCK1 (unknown origin) to IC50 for B-Raf (unknown origin)
# [3] = target: Serine/threonine-protein kinase B-raf (Homo sapiens, UniProt P15056); assay: Inhibition of B-Raf (unknown origin) by fluorescence polarization assay
# Homo sapiens [4] = organism: Homo sapiens; assay: Selectivity ratio of IC50 for BTK (unknown origin) to IC50 for B-Raf (unknown origin)
# Homo sapiens [5] = organism: Homo sapiens; assay: Selectivity ratio of IC50 for IKK2 (unknown origin) to IC50 for B-Raf (unknown origin)
# Homo sapiens [6] = organism: Homo sapiens; assay: Selectivity ratio of IC50 for aurora-B (unknown origin) to IC50 for B-Raf (unknown origin)
# Homo sapiens [7] = organism: Homo sapiens; assay: Selectivity ratio of IC50 for SGK1 (unknown origin) to IC50 for B-Raf (unknown origin)
# Homo sapiens [8] = organism: Homo sapiens; assay: Selectivity ratio of IC50 for EGFR (unknown origin) to IC50 for B-Raf (unknown origin)
# Homo sapiens [9] = organism: Homo sapiens; assay: Selectivity ratio of IC50 for aurora-A (unknown origin) to IC50 for B-Raf (unknown origin)
# Homo sapiens [10] = organism: Homo sapiens; assay: Selectivity ratio of IC50 for ERBB2 (unknown origin) to IC50 for B-Raf (unknown origin)
# Homo sapiens [11] = organism: Homo sapiens; assay: Selectivity ratio of IC50 for PKA (unknown origin) to IC50 for B-Raf (unknown origin)
# Homo sapiens [12] = organism: Homo sapiens; assay: Selectivity ratio of IC50 for IGF1R (unknown origin) to IC50 for B-Raf (unknown origin)
# Homo sapiens [13] = organism: Homo sapiens; assay: Selectivity ratio of IC50 for GSK3beta (unknown origin) to IC50 for B-Raf (unknown origin)
# Homo sapiens [14] = organism: Homo sapiens; assay: Selectivity ratio of IC50 for SYK (unknown origin) to IC50 for B-Raf (unknown origin)
# Homo sapiens [15] = organism: Homo sapiens; assay: Selectivity ratio of IC50 for ALK5 (unknown origin) to IC50 for B-Raf (unknown origin)
# Homo sapiens [16] = organism: Homo sapiens; assay: Selectivity ratio of IC50 for AKT1 (unknown origin) to IC50 for B-Raf (unknown origin)
# Homo sapiens [17] = organism: Homo sapiens; assay: Selectivity ratio of IC50 for ZAP70 (unknown origin) to IC50 for B-Raf (unknown origin)
# Chain of Serine/threonine-protein kinase B-raf (P15056 whole entry): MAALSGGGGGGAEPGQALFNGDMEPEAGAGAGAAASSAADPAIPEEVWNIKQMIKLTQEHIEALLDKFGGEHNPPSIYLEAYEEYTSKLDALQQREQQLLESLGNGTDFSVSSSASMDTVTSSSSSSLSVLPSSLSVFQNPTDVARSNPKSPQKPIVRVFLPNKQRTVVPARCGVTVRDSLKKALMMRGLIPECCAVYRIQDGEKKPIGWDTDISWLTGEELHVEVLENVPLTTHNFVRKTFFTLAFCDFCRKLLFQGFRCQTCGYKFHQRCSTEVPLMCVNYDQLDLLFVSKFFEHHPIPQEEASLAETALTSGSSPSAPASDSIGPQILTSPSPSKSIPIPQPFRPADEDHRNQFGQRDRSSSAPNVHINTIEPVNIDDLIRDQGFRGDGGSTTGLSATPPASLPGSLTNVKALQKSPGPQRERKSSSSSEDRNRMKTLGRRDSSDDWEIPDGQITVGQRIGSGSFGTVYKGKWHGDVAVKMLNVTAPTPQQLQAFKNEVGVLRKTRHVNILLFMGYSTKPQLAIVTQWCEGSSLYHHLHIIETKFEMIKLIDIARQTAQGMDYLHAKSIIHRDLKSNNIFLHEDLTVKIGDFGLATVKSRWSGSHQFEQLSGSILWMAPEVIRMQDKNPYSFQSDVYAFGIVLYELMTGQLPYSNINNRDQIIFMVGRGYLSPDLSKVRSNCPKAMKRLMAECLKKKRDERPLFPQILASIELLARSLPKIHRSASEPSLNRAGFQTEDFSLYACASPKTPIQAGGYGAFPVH
smiles,measurement,setting,value
Nc1ncc(-c2cccnc2)c2scc(-c3cccc(NC(=O)Nc4ccc(Cl)c(C(F)(F)F)c4)c3)c12,Ratio IC50,Homo sapiens [1],> 100
same,Ratio IC50,Homo sapiens [2],> 100
same,IC50,[3],16.6 nM
same,Ratio IC50,Homo sapiens [4],> 100
same,Ratio IC50,Homo sapiens [5],> 100
same,Ratio IC50,Homo sapiens [6],> 100
same,Ratio IC50,Homo sapiens [7],> 100
same,Ratio IC50,Homo sapiens [8],> 100
same,Ratio IC50,Homo sapiens [9],> 100
same,Ratio IC50,Homo sapiens [10],> 100
same,Ratio IC50,Homo sapiens [11],> 100
same,Ratio IC50,Homo sapiens [12],> 100
same,Ratio IC50,Homo sapiens [13],> 100
same,Ratio IC50,Homo sapiens [14],> 100
same,Ratio IC50,Homo sapiens [15],> 100
same,Ratio IC50,Homo sapiens [16],> 100
same,Ratio IC50,Homo sapiens [17],> 100
Nc1ncc(-c2cccnc2)c2scc(-c3cccc(NC(=O)Nc4ccc(OCc5ccccc5)cc4)c3)c12,IC50,[3],933 nM
Nc1ncc(-c2cccnc2)c2scc(-c3cccc(NC(=O)Nc4ccc(C(F)(F)F)cc4)c3)c12,IC50,[3],25.1 nM
Nc1ncc(-c2cccnc2)c2scc(-c3cccc(NC(=O)Nc4ccccc4)c3)c12,IC50,[3],13.8 nM
Nc1ncc(-c2cccnc2)c2scc(-c3cccc(NC(=O)Cc4cccs4)c3)c12,IC50,[3],45 nM
Nc1cccc(-c2csc3c(-c4cccnc4)cnc(N)c23)c1,IC50,[3],> 10000 nM
COc1cccc(NC(=O)Nc2cccc(-c3csc4c(-c5cccnc5)cnc(N)c34)c2)c1,IC50,[3],9.6 nM
Nc1ncc(-c2cccnc2)c2scc(-c3cccc(NC(=O)NC4CCCCC4)c3)c12,IC50,[3],30.9 nM
Nc1ncc(-c2cccnc2)c2scc(-c3cccc(NC(=O)Nc4c(F)cccc4F)c3)c12,IC50,[3],19.5 nM
Nc1ncc(-c2cccnc2)c2scc(-c3cccc(NC(=O)C4CCCCC4)c3)c12,IC50,[3],1550 nM
Nc1ncc(-c2cccnc2)c2scc(-c3cccc(NS(=O)(=O)c4ccccc4)c3)c12,IC50,[3],> 10000 nM
Nc1ncc(-c2cccnc2)c2scc(-c3cccc(NC(=O)c4cccc(C(F)(F)F)c4)c3)c12,Ratio IC50,Homo sapiens [1],> 40
same,Ratio IC50,Homo sapiens [2],> 40
same,IC50,[3],5.1 nM
same,Ratio IC50,Homo sapiens [4],> 40
same,Ratio IC50,Homo sapiens [5],> 40
same,Ratio IC50,Homo sapiens [6],> 40
same,Ratio IC50,Homo sapiens [7],> 40
same,Ratio IC50,Homo sapiens [8],> 40
same,Ratio IC50,Homo sapiens [9],> 40
same,Ratio IC50,Homo sapiens [10],> 40
same,Ratio IC50,Homo sapiens [11],> 40
same,Ratio IC50,Homo sapiens [12],> 40
same,Ratio IC50,Homo sapiens [13],> 40
same,Ratio IC50,Homo sapiens [14],> 40
same,Ratio IC50,Homo sapiens [15],> 40
same,Ratio IC50,Homo sapiens [16],> 40
same,Ratio IC50,Homo sapiens [17],> 40
Nc1ncc(-c2cccnc2)c2scc(-c3cccc(NC(=O)NCc4ccccc4)c3)c12,IC50,[3],20.9 nM
Nc1ncc(-c2cccnc2)c2scc(-c3cccc(NC(=O)Cc4ccccc4)c3)c12,IC50,[3],19 nM
Nc1ncc(-c2cccnc2)c2scc(-c3cccc(NC(=O)Nc4cc(C(F)(F)F)ccc4F)c3)c12,IC50,[3],21.4 nM
Nc1ncc(-c2cccnc2)c2scc(-c3cccc(NC(=O)c4cc(F)ccc4F)c3)c12,IC50,[3],49 nM
CC(C)(C)NC(=O)Nc1cccc(-c2csc3c(-c4cccnc4)cnc(N)c23)c1,IC50,[3],7940 nM
Cc1noc(C)c1NC(=O)Nc1cccc(-c2csc3c(-c4cccnc4)cnc(N)c23)c1,IC50,[3],692 nM
Nc1ncc(-c2cccnc2)c2scc(-c3cccc(NC(=O)c4ccccc4)c3)c12,IC50,[3],93 nM
Cn1cccc1C(=O)Nc1cccc(-c2csc3c(-c4cccnc4)cnc(N)c23)c1,IC50,[3],4170 nM
